US12018011B2, “Macrocyclic compounds and compositions, and methods of preparing and using the same” (Kura Oncology, Inc., priority 2021, dated 2024)

Columns and labels:
[1] = molecular target: T1, Recombinant human farnesyl transferase (FTase) (Homo sapiens, UniProt P49356); experiment: FTase fluorescence assay (farnesylation of dansyl-GCVLS peptide); assay type: biochemical; settings: recombinant human FTase 2.5 nM, Dansyl-GCVLS 85 nM, FPP 30 nM, 30° C., 50 minutes
T1 construct: purchased Crelux (Martinsried, Germany)

[2] = molecular target: T2, geranylgeranyl transferase type-1 (GGTase) (Homo sapiens, UniProt P53609); experiment: GGTase fluorescence assay (dansyl-GCVLL peptide, GGPP); assay type: biochemical; settings: GGTase 25 nM, Dansyl-GCVLL 10 μM, GGPP 10 μM, 30° C., 120 minutes
T2 construct: purchased Crelux (Martinsried, Germany)
Excerpt: (§1) T24/83 cell line was purchased from the European Collection of Authenticated Cell Cultures (Salisbury, UK). Recombinant human farnesyl transferase (FTase) and geranylgeranyl transferase type-1 (GGTase) were obtained from Crelux (Martinsried, Germany). Dansyl labelled GCVLS peptide was purchased from Bachem (Torrance, CA), and Dansyl labelled GCVLL peptide was purchased from Bio Synthesis (Lewisville, TX). Farnesyl Pyrophosphate (FPP) and Geranylgeranyl pyrophosphate (GGPP) were purchased from Cayman (Ann Arbor, MI).
Geranylgeranyl transferase (GGTase) is a closely related enzyme to farnesyl transferase (FTase). The two enzymes share a common regulatory chain but have distinct individual enzymatic domains. GGTase catalyses the addition of an alternative prenylated side chain to some of the same proteins that may also be farnesylated. Thus, selective inhibitory activity against FTase relative to GGTase is a critical characteristic for FTase inhibitors.
The IC50 value of the compounds disclosed herein as inhibitors of Ftase and/or GGTase, was determined by measuring the concentration (provided in nM) necessary to achieve inhibition of enzyme activity by 50% (IC50). […] Compounds having a low IC50 value against FTase, for example an IC50 (FTase)<100 nM, such as an IC50 (FTase)<10 nM, are preferred. Compounds having a low IC50 value against FTase and a high IC50 value against GGTase, for example an IC50 (FTase)<100 nM, such as an IC50 (FTase)<10 nM, and an IC50 (GGTase)>100 nM, are potent and selective inhibitors of FTase, and are particularly preferred.
The inhibition activities of the compounds disclosed herein against Ftase and GGTase were measured in the respective fluorescence assays as follows:
For the GGTase assay, GGTase (25 nM), Dansyl labelled GCVLL peptide (10 μM), GGPP (10 μM) and inhibitor were mixed in assay buffer (50 mM Tris, pH 7.5, 10 mM magnesium chloride, 10 μM zinc chloride, 0.08% CHAPS, 5 mM dithiothreitol) and incubated in a total volume of 20 μL at 30° C. for 120 minutes.
For both the FTase assay and GGTase assay, fluorescence intensity was detected (excitation at 340 nm and emission at 486 nm) using EnVision (PerkinElmer; Waltham, MA), IC50 determinations were performed using a sigmoidal dose-response model with Xlfit software (IDBS, Inc.; Boston, MA), and tipifarnib was used as a positive control. All the assay plates for each assay passed the QC criteria (S/B, Z factor).

T24/83 cells = experiment: T24/83 cell proliferation assay (CellTiter-Glo); assay type: cell-based; settings: Homo sapiens, 96 h, 4 days
Excerpt: as §1
Mutant oncogenic HRAS was originally identified in a human bladder carcinoma cell line called T24. T24/83 is a subline of T24 established more recently that has more favorable growth characteristics for in vitro assays. Thus, T24/83 is a well-characterized mutant HRAS-dependent cell line that is an ideal model for quantifying the HRAS-dependent antitumor activity of farnesyltransferase inhibitors.
T24/83 cells were inoculated into 384 well plates at 100 cells/well, and grown in the presence of inhibitor, 0.7% DMSO as a negative control, or 100 μM tipifarnib as a positive control, at 37° C. for 4 days. Cell viability was assessed using the CellTiter-Glo Kit (CTG) (Promega; Madison, WI). Luminescence was recorded using EnVision microplate reader (PerkinElmer; Waltham, MA). In this assay, tipifarmib was used as a positive control. All the assay plates passed the QC criteria (S/B, Z-factor).

[3] = Metabolic stability in human liver microsomes; assay type: in vitro ADME; settings: human liver microsomes 0.5 mg protein/mL, test compound 1 μM, 37° C.; read-out: T1/2 in HLM
Experimental: (§2) The metabolic stability of the compounds disclosed herein was determined by measuring half-life (T1/2) of the compounds in the presence of mouse liver microsomes (MLM) or human liver microsomes (BILM).
(§3) Intermediate solution: 5 μL of compound and control stock solution (10 mM in dimethyl sulfoxide (DMSO)) were diluted with 495 μL of acetonitrile (ACN) (intermediate solution concentration: 100 μM, 99% ACN).
(§4) Working solution: 50 μL of compound and control intermediate solution (100 μM) were diluted with 450 μL of 100 mM potassium phosphate buffer (working solution concentration: 10 μM, 9.9% ACN).
(§5) Controls used in this assay: Testosterone, Diclofenac, and Propafenone.
(§6) Preparation Procedure: The appropriate amount of NADPH powder was weighed and diluted into a 10 mM MgCl2 solution (working solution concentration: 10 unit/mL; final concentration in reaction system: 1 unit/mL).
(§7) The appropriate concentrations of microsome working solutions were prepared in 100 mM potassium phosphate buffer.
(§8) Cold (4° C.) acetonitrile (CAN) containing 200 ng/mL tolbutamide and 200 ng/mL labetalol as internal standards (IS) was used as the stop solution.
(§9) Using an Apricot automation workstation, 10 μL/well of compound working solution were added to all 96-well reaction plates except the blank (T0, T5, T10, T20, T30, T60, and NCF60).
(§10) An Apricot automation workstation was used to add 80 μL/well of microsome solution to all reaction plates (Blank, T0, T5, T10, T20, T30, T60, and NCF60).
(§11) All reaction plates containing mixtures of compound and microsomes were pre-incubated at 37° C. for 10 minutes.
(§12) An Apricot automation workstation was used to add 10 μL/well of 100 mM potassium phosphate buffer to reaction plate NCF60.
(§13) Reaction plate NCF60 was incubated at 37° C. for 60 minutes.
(§14) After pre-incubation, an Apricot automation workstation was used to add 10 μL/well of NADPH regenerating system to every reaction plate except NCF60 (Blank, T0, T5, T10, T20, T30, and T60) to start the reaction. Final concentration of each component in incubation medium: Microsome (0.5 mg protein/mL); Test Compound (1 μM); Control Compound (1 μM); Acetonitrile (0.99%); DMSO (0.01%).
(§15) The reaction plates were incubated at 37° C. for 0 minute (T0, stop solution was added prior to microsome and NADPH solutions), 5 minutes (T5), 10 minutes (T10), 20 minutes (T20), 30 minutes (T30), 60 minutes (T60).
(§16) An Apricot automation workstation was used to add 300 μL/well of stop solution to each reaction plate at its appropriate end time point to terminate the reaction.
(§17) Each plate was sealed and shaken for 10 minutes.
(§18) After shaking, each plate was centrifuged at 4000 rpm and 4° C. for 20 minutes.
(§19) During centrifugation, an Apricot automation workstation was used to add 300 µL/well of HPLC grade water to eight new 96-well plates.
(§20) After centrifugation, an Apricot automation workstation was used to transfer 100 μL of supernatant from each reaction plate to its corresponding bioanaylsis plate.
(§21) Each bioanalysis plate was sealed and shaken for 10 minutes prior to LC-MS/MS analysis.
(§22) The equation of first order kinetics was used to calculate T1/2 and CLint(mic) (μL/min/mg).

[4] = Metabolic stability in mouse liver microsomes; assay type: in vitro ADME; settings: CD-1 mouse liver microsomes 0.5 mg protein/mL, test compound 1 μM, 37° C.; read-out: T1/2 in MLM
Experimental: as §2, §3, §4, §5, §6, §7, §8, §9, §10, §11, §12, §13, §14, §15, §16, §17, §18, §19, §20, §21, §22

Row | IC50 [1] | IC50 [2] | IC50 (T24/83 cells) | half-life at 1 μM [3] | half-life at 1 μM [4] | SMILES
1 | ≤ 10 nM | > 1000 nM | 50 to 500 nM | 30 to 100 min | < 5 min | Cn1cncc1[C@@]1(N)c2ccc(Cl)c(c2)OCc2cccc(c2)-c2cc(=O)n(C)c3ccc1cc23 [(S)-15, (S)-3-amino-4^4-chloro-2^1-methyl-3-(1-methyl-1H-imidazol-5-yl)-2^1,2^2-dihydro-5-oxa-2(4,6)-quinolina-1,4(1,3)-dibenzenacyclohexaphan-2^2-one]
2 | ≤ 10 nM | > 1000 nM | 50 to 500 nM | > 100 min | > 15 min | Cn1cnnc1[C@@]1(N)c2ccc(Cl)c(c2)COc2cccc(c2)-c2cc(=O)n(C)c3ccc1cc23 [(S)-51, (S)-3-amino-4^4-chloro-2^1-methyl-3-(4-methyl-4H-1,2,4-triazol-3-yl)-2^1,2^2-dihydro-6-oxa-2(4,6)-quinolina-1,4(1,3)-dibenzenacyclohexaphan-2^2-one]
3 | ≤ 10 nM | > 1000 nM | ≤ 50 nM | > 100 min | > 15 min | [2H]C([2H])([2H])n1c(=O)cc2c3cc(ccc31)[C@@](N)(c1cncn1C)c1ccc(C#N)c(c1)COc1cccc-2c1 [(S)-56, (S)-3-amino-2^1-(methyl-d3)-3-(1-methyl-1H-imidazol-5-yl)-2^2-oxo-2^1,2^2-dihydro-6-oxa-2(4,6)-quinolina-1,4(1,3)-dibenzenacyclohexaphane-4^4-carbonitrile]
4 | ≤ 10 nM | > 1000 nM | ≤ 50 nM | < 30 min | < 5 min | Cn1cncc1[C@@](N)(c1ccc(Cl)cc1)c1ccc2c(c1)c(-c1cccc(Cl)c1)cc(=O)n2C [Tipifarnib, tipifarnib, reference compound]
5 | ≤ 10 nM | > 1000 nM | ≤ 50 nM | > 100 min | 5 to 15 min | Cn1cncc1[C@@]1(N)c2ccc(Cl)c(c2)COc2cccc(c2)-c2cc(=O)n(C)c3ccc1cc23 [(S)-46, (S)-3-amino-4^4-chloro-2^1-methyl-3-(1-methyl-1H-imidazol-5-yl)-2^1,2^2-dihydro-6-oxa-2(4,6)-quinolina-1,4(1,3)-dibenzenacyclohexaphan-2^2-one]
6 | ≤ 10 nM | > 1000 nM | ≤ 50 nM | < 30 min | 5 to 15 min | Cn1cncc1[C@@]1(O)c2ccc(C#N)c(c2)CCc2cccc(c2)-c2cc(=O)n(C)c3ccc1cc23 [(R)-6, (R)-3-hydroxy-2^1-methyl-3-(1-methyl-1H-imidazol-5-yl)-2^2-oxo-2^1,2^2-dihydro-2(4,6)-quinolina-1,4(1,3)-dibenzenacyclohexaphane-4^4-carbonitrile]
7 | ≤ 10 nM | > 1000 nM | ≤ 50 nM | 30 to 100 min | 5 to 15 min | Cn1cncc1[C@@]1(O)c2ccc(C#N)c(c2)OCc2cccc(c2)-c2cc(=O)n(C)c3ccc1cc23 [(S)-18, (S)-3-hydroxy-2^1-methyl-3-(1-methyl-1H-imidazol-5-yl)-2^2-oxo-2^1,2^2-dihydro-5-oxa-2(4,6)-quinolina-1,4(1,3)-dibenzenacyclohexaphane-4^4-carbonitrile]
8 | ≤ 10 nM | 100 to 1000 nM | ≤ 50 nM |  |  | Cn1cncc1[C@@]1(N)c2ccc(C#N)c(c2)OCc2cccc(c2)-c2cc(C#N)nc3ccc1cc23 [(S)-21, (S)-3-amino-3-(1-methyl-1H-imidazol-5-yl)-5-oxa-2(4,6)-quinolina-1,4(1,3)-dibenzenacyclohexaphane-2^2 4^4-dicarbonitrile]
9 | ≤ 10 nM | > 1000 nM | ≤ 50 nM | > 100 min | 5 to 15 min | [2H]C([2H])([2H])n1c(=O)cc2c3cc(ccc31)[C@@](N)(c1cncn1C)c1ccc(Cl)c(c1)COc1cccc-2c1 [(S)-47, (S)-3-amino-4^4-chloro-2^1-(methyl-d3)-3-(1-methyl-1H-imidazol-5-yl)-2^1,2^2-dihydro-6-oxa-2(4,6)-quinolina-1,4(1,3)-dibenzenacyclohexaphan-2^2-one]
10 | ≤ 10 nM | > 1000 nM | ≤ 50 nM |  |  | [2H]C([2H])([2H])n1c(=O)cc2c3cc(ccc31)[C@@](O)(c1cncn1C)c1ccc(C#N)c(c1)COc1cccc-2c1 [(S)-55, (S)-3-hydroxy-2^1-(methyl-d3)-3-(1-methyl-1H-imidazol-5-yl)-2^2-oxo-2^1,2^2-dihydro-6-oxa-2(4,6)-quinolina-1,4(1,3)-dibenzenacyclohexaphane-4^4-carbonitrile]
11 | ≤ 10 nM | > 1000 nM | ≤ 50 nM |  |  | Cn1cncc1[C@@]1(N)c2ccc(Cl)c(c2)COc2cccc(c2)-c2cc(C#N)nc3ccc1cc23 [(S)-48, (S)-3-amino-4^4-chloro-3-(1-methyl-1H-imidazol-5-yl)-6-oxa-2(4,6)-quinolina-1,4(1,3)-dibenzenacyclohexaphane-2^2-carbonitrile]
